Entries after “also recorded” stand apart in the source; their conditions may differ.
Columns and labels:
Format in all cases: cell-based
[1] = test system: Normal Human Dermal Fibroblasts (NHDFs); assay: Colonization of a standard acellular area (IBIDI chamber gap closure) by fibroblasts; settings: vs ethanol control; for NHDF Migration (+MMC) (colonization of the acellular area): presence of MMC, 6 h and 24 h
Experimental: The study consists in an in vitro assay aiming to evaluate the properties of E4 and E2 at 4 concentrations each on keratinocytes and fibroblasts. In this assay, the measurement of the colonization of a standard acellular surface generated from a confluent monolayer of cells using a dedicated culture device (IBIDI chamber) is performed. The assay is performed in absence and in presence of a proliferation inhibitor to focus on cell proliferation and migration or on migration only, respectively.
Normal Human forskin-derived Dermal Fibroblats (NHDFs, ATCC) cells were grown in phenol-free Dulbecco's Modified Eagle Medium (DMEM, ThermoFisher Scientific) supplemented with 10% of Foetal Bovine Serum (FBS, ThermoFisher Scientific), L-glutamine and antibiotics. The cells were maintained in a humidified incubator at 37° C. with a 5% CO2 atmosphere.
Cells were plated in 2-well silicone inserts with a defined cell free gap (IBIDI chambers; IBIDI GmbH, 80209) that was previously inserted on 12-well culture plates. This culture device allows to create a standardized 500 μm±100 μm cell free gap for monitoring cell colonization. 24 h after seeding, when the culture reached high confluency, cells in the insert were treated, or not, with mitomycin C (MMC) at 10 μg/ml during 2 h. After these 2 hours, the insert was removed, and cells were treated with E2 or E4 in presence or not of MMC for additional 2 h. Then, if appropriate, the culture medium was removed and cells were treated with E2 or E4 for 22 h, in absence of MMC.
For the assay, keratinocytes were plated in Epilife medium without HKGS and all the treatments were performed in this medium. Fibroblasts were plated in DMEM medium containing only 2,5% of FBS and the treatments were performed in absence of FBS.
E2 and E4 were applied at 4 concentrations each (10^−7M, 10^−8M, 10^−9M, 10^−10M). In parallel, cells were treated with a positive control (HKGS 1% for human keratinocytes and PDGF-BB at 10 ng/ml for human fibroblasts).
To monitor cell colonization and to evaluate the gap closure rate, pictures of the gap were taken after different times: at time 0 h, corresponding to the beginning of the treatment with E2 or E4 and to the removal of the culture insert, at time 6 h and at time 24 h (corresponding to the end of the treatments with E2 or E4). Pictures were taken with a microscope Zeiss (Axiover 25-10× objective) and with a camera Invenio2EIII (DeltaPix—Lux-Optic). The colonized areas were quantified from the pictures by the use of the WimAsis platform—WimScratch software. For each insert, 3 pictures were taken at each time. As each condition was performed in triplicates, it means a total of 9 pictures per condition and per time point of acquisition

mouse fibroblasts = assay: Fibroblast monolayer scratch assay, mouse fibroblasts; settings: mouse fibroblasts (female C57Bl/6); 10^−7M; pilot experiments
Experimental: (§1) Confluent wells of both primary keratinocytes and fibroblasts were subjected to a highly validated scratch wounding procedure (using a 1 mL sterile filter tip). Post-scratching, cells were rinsed with DPBS and cell-specific media containing treatments added to each well. Cells were imaged on a ptychographic live cell imaging platform (Livecyte 2™, Phasefocus) for 24-48 hours. Automated tracking of individual unlabeled cells will be combined with 3D cell measurements to quantify a range of wound-relevant cell parameters including scratch closure rate.
(§2) Dose range finding experiments were conducted with E4 (10^−10M to 10^−6M) and E2 with and without Mitomycin C (MMC, to inhibit proliferation) using vehicle as negative controls.

[2] = test system: primary human dermal fibroblasts; assay: Fibroblast monolayer scratch assay, human fibroblasts; settings: human fibroblasts from three female donors; 10^−10M to 10^−6 M; pilot experiments
Experimental: (§3) Human skin was transferred to the laboratory in holding media (DMEM containing 4% penicillin-streptomycin and Amphotericin B solution) within 30 minutes of collection. Once defatted, the skin was rinsed in HBSS with 4% PSA followed by DPBS without antibiotics, then cut into thin strips and floated on 0.2% Dispase II in DPBS overnight at 4° C., followed by manual separation of the epidermis from the dermis. Primary human epidermal keratinocytes and primary human dermal fibroblasts were then isolated.
as §1, §2

[3] = test system: primary human epidermal keratinocytes; assay: Keratinocyte migration scratch assay; settings: 15% HKGS; E4 10^−10M and 10^−7M; compared with E2
Experimental: as §3, §1, §2

[4] = test system: mouse BMDM (bone marrow derived monocytes); assay: Immune cell polarization (qPCR of M1/M2 markers), mouse BMDM; settings: activated mouse BMDM; qPCR markers NOS2, ARG1
Experimental: Immune cell polarization was evaluated in vitro using markers for M1/TH-1 (NOS2) and M2/TH-2 (ARG1) phenotype with human monocytes and mouse monocytes (BMDM bone marrow derived monocytes).
An experiment was conducted to evaluate the anti-inflammatory effects of E4 or vehicle (negative control). qPCR methodology was used to assess the effects of E2 and E4 on immune cell polarization using well validated marker of pro-inflammatory (NOS2 for MI/TH-1 phenotype) and anti-inflammatory (ARG1 for ME/TH-2 phenotype) activity.

[5] = test system: mouse lymphoma cell line L5178Y TK^+/−; assay: Generation of reactive oxygen species (ROS) in mouse lymphoma cells; settings: test item 1 to 3000 μM; 3 h exposure; vs vehicle control; three experiments
Experimental: The objective of the study was to investigate the generation of reactive oxygen species (ROS) induced by the test item, estetrol (E4), in a mouse lymphoma cell line L5178Y TK^+/−.
L5178Y TK^+/− cells in logarithmic phase of growth were plated in black 96 well cell culture plates at 1×10^4 cells in 90 μL of cell culture media. Controls and test item in triplicate were applied to the cells as a 10× concentrate in 10 μL of a 10% ethanol solution in PBS (final concentration of ethanol on plate was 1%). Cells were incubated for 3 hours at 37° C., 5% CO2, and the generation of ROS was evaluated by fluorescence with a ROS reagent: the ROS reagent was freshly prepared by dissolving one ampoule of reagent (50 μg) in 70 μL DMSO and further diluting this with 2.1 mL of pre-warmed PBS. 10 μL of ROS reagent was added to each well and the plate were shaken for 30 seconds in the dark. The plates were incubated approximately at 37° C., 5% CO2 for 1 h 30 min and fluorescence was read on a plate scanner with excitation at 492 nm and emission at 520 nm.

C[C@]12CC[C@@H]3c4ccc(O)cc4CC[C@H]3[C@@H]1[C@@H](O)[C@@H](O)[C@@H]2O [E4, 1,3,5 (10)-estratrien-3,15alpha,16alpha,17beta-tetrol]
NHDF Migration (+MMC) (colonization of the acellular area) ([1]; 10^−7M): significantly increase the colonization of the acellular area; also recorded: significant activity
NHDF Migration (+MMC) (colonization of the acellular area) ([1]; 10^−8M): significantly increase the colonization of the acellular area; also recorded: significant activity
colonization of the cell-free area by NHDF, overall ([1]; absence of MMC, all four concentrations (10^−7M to 10^−10M)): not able to significantly increase the colonization of the cell-free area
fibroblast migration / in vitro wound closure (mouse fibroblasts): promotes in vitro wound closure to a similar extent as E2; also recorded: as effective as E2 in promoting fibroblast migration
fibroblast migration / in vitro wound closure [2]: promotes in vitro wound closure to a similar extent as E2; also recorded: as effective as E2 in promoting fibroblast migration
impact on keratinocyte migration (wound closure) [3]: higher than the impact of E2
immune cell polarization (monocyte subtype M1/M2) [4]: switch from monocyte subtype M1 (pro-inflammatory) to subtype M2 (healing)
levels of ROS [5]: dose-dependent decrease in the levels of ROS

From patent publication US20250325467A1, “COMPOSITIONS FOR PREVENTING OR TREATING SKIN AGING” (ESTETRA SRL, priority 2021, published 2025)
